Data set [1] can be described thus: Metabolic stability in rat liver microsomes assessed as compound remaining at […] after 30 mins. It counts as ADME, Microsome. The following applies: read-out: Stability.
The nature of data set [2]: Metabolic stability in human liver microsomes assessed as compound remaining at […] after 30 mins. It counts as ADME, Microsome. The settings on record: read-out: Stability. A general note: Liver microsomes are vesicles of endoplasmic reticulum, rich in cytochrome P450 enzymes.
Data set [3] addresses T1, Cannabinoid receptor 2 (Rattus norvegicus, UniProt Q9QZN9).
T1 sequence (Q9QZN9 whole entry): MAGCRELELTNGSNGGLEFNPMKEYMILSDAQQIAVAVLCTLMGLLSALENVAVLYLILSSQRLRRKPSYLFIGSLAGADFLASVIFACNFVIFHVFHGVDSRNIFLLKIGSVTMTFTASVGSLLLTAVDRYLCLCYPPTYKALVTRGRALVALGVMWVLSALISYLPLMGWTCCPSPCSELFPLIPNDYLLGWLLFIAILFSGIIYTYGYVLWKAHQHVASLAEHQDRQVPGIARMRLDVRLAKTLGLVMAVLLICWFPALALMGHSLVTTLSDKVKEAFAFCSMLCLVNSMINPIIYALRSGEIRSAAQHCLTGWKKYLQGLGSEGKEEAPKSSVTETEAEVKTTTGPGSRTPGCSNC
As to the kind of experiment: Agonist activity at CB2 receptor in rat cerebellar membrane assessed as WIN-55212-2-stimulated [35S]GTPgammaS binding after 6 hrs by scintillation spectrometry. It counts as functional, cell membranes, Cerebellum. On the technique in general: Binding of GTPγS marks nucleotide exchange on a G protein.

Data set [4] addresses T2, Cannabinoid receptor 2 (Homo sapiens, UniProt P34972). As to the kind of experiment: Displacement of [3H][…] from human cloned CB2 receptor after 60 mins by scintillation spectroscopy.
Data set [5] concerns the target T3, Cannabinoid receptor 1 (Homo sapiens, UniProt P21554). As to the kind of experiment: Inhibition of [3H][…] binding to human cloned CB1 receptor at 10 uM after 120 mins by scintillation spectroscopy.
For data set [6], the target named is T3, Cannabinoid receptor 1. Nature of the data set: Displacement of [3H][…] from human cloned CB1 receptor after 120 mins by scintillation spectroscopy. (In general: In a radioligand displacement assay an active substance lowers the binding of a labelled ligand.)
The species named for a further data set is Homo sapiens. As to the kind of experiment: Selectivity ratio of Ki for human cloned CB1 receptor to Ki for human cloned CB2 receptor.
Data set [7] in a line: Cmax in Sprague-Dawley rat at 10 mg/kg, po administered as single dose. It counts as ADME, organism-based. The following applies: in vivo. The arrangement: dose 10 mg/kg, route oral.
Data set [8] can be described thus: AUC (0 to infinity) in Sprague-Dawley rat at 10 mg/kg, po administered as single dose. The arrangement: time infinity, dose 10 mg/kg, route oral. The settings on record: plasma. It counts as ADME, organism-based.
The nature of data set [9]: AUC (0 to infinity) in Sprague-Dawley rat at 1 mg/kg, iv administered as single dose. It counts as ADME, organism-based. The arrangement: time infinity, dose 1 mg/kg, route intravenous. The settings on record: plasma.
The nature of data set [10]: Half life in Sprague-Dawley rat at 1 mg/kg, iv administered as single dose. It counts as ADME, organism-based. The arrangement: dose 1 mg/kg, route intravenous. The settings on record: in vivo.
Data set [11] in a line: Half life in Beagle dog at 1 mg/kg, iv administered as single dose. It counts as ADME, organism-based, Canis lupus familiaris. The arrangement: dose 1 mg/kg, route intravenous. The settings on record: in vivo.
The subject of data set [12] is Canis familiaris. As to the kind of experiment: Area under curve (0 to infinity) in Beagle dog at 1 mg/kg, iv administered as single dose. It counts as ADME, organism-based, Canis lupus familiaris. The arrangement: time infinity, dose 1 mg/kg, route intravenous. The following applies: in vivo.
Data set [13] can be described thus: Tmax in Beagle dog at 10 mg/kg, po administered as single dose. It counts as ADME, organism-based, Canis lupus familiaris. The arrangement: dose 10 mg/kg, route oral. The settings on record: in vivo.
Data set [14] can be described thus: Cmax in Beagle dog at 10 mg/kg, po administered as single dose. It counts as ADME, organism-based, Canis lupus familiaris. The arrangement: dose 10 mg/kg, route oral. The following applies: in vivo.
A short description of data set [15]: Oral bioavailability in Sprague-Dawley rat at 10 mg/kg administered as single dose. The settings on record: in vivo. It counts as ADME, organism-based.
Data set [16] is described as follows: Systemic plasma clearance in Sprague-Dawley rat at 1 mg/kg, iv administered as single dose. It counts as ADME, organism-based. The arrangement: dose 1 mg/kg, route intravenous.
Data set [17] can be described thus: Half life in Beagle dog at 10 mg/kg, po administered as single dose. The arrangement: dose 10 mg/kg, route oral. The following applies: in vivo. It counts as ADME, organism-based, Canis lupus familiaris.
The nature of data set [18]: Systemic plasma clearance in Beagle dog at 1 mg/kg, iv administered as single dose. The arrangement: dose 1 mg/kg, route intravenous. It counts as ADME, organism-based, Canis lupus familiaris.
Data set [19] is described as follows: Volume of distribution at steady state in Sprague-Dawley rat at 1 mg/kg, iv administered as single dose. It counts as ADME, organism-based. The arrangement: dose 1 mg/kg, route intravenous. The following applies: in vivo, read-out: Vdss.
The test system of data set [20] is Canis familiaris. As to the kind of experiment: Oral bioavailability in Beagle dog at 10 mg/kg, po administered as single dose. It counts as ADME, organism-based, Canis lupus familiaris. The following applies: in vivo.
For another data set, the system named is Rattus norvegicus. As to the kind of experiment: Antiallodynic activity against neuropathic pain in L5 spinal nerve ligated rat model assessed as reduction of allodynia at 100 mg/kg, po administered 9 days after surgery relative to control. It counts as functional. The arrangement: scale not given: the % may be the effect or the level left.
Data set [21] can be described thus: Volume of distribution at steady state in Beagle dog at 1 mg/kg, iv administered as single dose. It counts as ADME, organism-based, Canis lupus familiaris. The arrangement: dose 1 mg/kg, route intravenous. The settings on record: in vivo, read-out: Vdss.
In data set [22] the test system is Canis familiaris. As to the kind of experiment: AUC (0 to infinity) in Beagle dog at 10 mg/kg, po administered as single dose. It counts as ADME, organism-based, Canis lupus familiaris, Plasma. The arrangement: time infinity, dose 10 mg/kg, route oral. The following applies: in vivo.
Data set [23] is described as follows: Tmax in Sprague-Dawley rat at 10 mg/kg, po administered as single dose. It counts as ADME, organism-based. The arrangement: dose 10 mg/kg, route oral. The settings on record: in vivo.
A short description of data set [24]: Half life in Sprague-Dawley rat at 10 mg/kg, po administered as single dose. It counts as ADME, organism-based. The arrangement: dose 10 mg/kg, route oral. The following applies: in vivo.
The target in data set [25] is T2, Cannabinoid receptor 2. Nature of the data set: Inhibition of [3H][…] binding to human cloned CB2 receptor at 10 uM after 60 mins by scintillation spectroscopy.

T3 sequence (P21554 whole entry): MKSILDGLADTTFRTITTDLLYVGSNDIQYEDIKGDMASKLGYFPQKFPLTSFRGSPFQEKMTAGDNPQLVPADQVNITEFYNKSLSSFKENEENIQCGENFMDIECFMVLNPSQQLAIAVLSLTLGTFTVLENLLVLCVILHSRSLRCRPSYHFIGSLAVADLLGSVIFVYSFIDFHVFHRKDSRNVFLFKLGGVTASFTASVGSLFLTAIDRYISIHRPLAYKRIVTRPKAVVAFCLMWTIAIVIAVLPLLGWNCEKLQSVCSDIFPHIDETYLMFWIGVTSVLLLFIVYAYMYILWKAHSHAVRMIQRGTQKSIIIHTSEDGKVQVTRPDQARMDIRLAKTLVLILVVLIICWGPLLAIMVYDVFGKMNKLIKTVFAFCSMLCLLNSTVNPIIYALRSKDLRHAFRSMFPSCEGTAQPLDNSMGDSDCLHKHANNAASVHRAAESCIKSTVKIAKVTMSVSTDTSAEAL
T2 sequence (P34972 whole entry): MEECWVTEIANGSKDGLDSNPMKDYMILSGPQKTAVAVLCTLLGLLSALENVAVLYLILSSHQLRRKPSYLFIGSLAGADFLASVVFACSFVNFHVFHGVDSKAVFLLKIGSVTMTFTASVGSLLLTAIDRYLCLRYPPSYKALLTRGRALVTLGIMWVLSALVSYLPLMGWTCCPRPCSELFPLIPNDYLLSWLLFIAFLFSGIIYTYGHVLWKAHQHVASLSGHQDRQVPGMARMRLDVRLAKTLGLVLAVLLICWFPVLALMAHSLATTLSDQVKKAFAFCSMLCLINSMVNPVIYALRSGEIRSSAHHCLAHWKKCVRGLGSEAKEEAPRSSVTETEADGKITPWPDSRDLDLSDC

One may read the EC50 as the concentration that produces a half-maximal response. For orientation: Ki means the dissociation constant of the complex between target and ligand, obtained from inhibition or displacement. As usually defined, the inhibition is the drop in the measured response relative to a control, in per cent. As to `CCC1(C(=O)Nc2cc(CN3CCOCC3)c(C)cn2)CCCCC1`, the remaining at 0.5 h in data set [1] and in [2] was 0% throughout. The EC50 on Cannabinoid receptor 2 [3] was found to be 0.0088 µM. On Cannabinoid receptor 2 [4], this compound returned a Ki of 0.007 µM. This compound also displayed an inhibition at Cannabinoid receptor 1 [5] of 36%.

Turning to `CCC1(C(=O)Nc2cc(CN3CCOCC3)c(C)cn2)CC1`, the EC50 at Cannabinoid receptor 2 [3] stood at 0.062 µM. On Cannabinoid receptor 2 [4], the Ki stood at 0.063 µM. In addition, the inhibition on Cannabinoid receptor 1 [5] amounted to 25%.

`CCC(C)(C)C(=O)Nc1cc(CN2CCOCC2)c(N)cn1` returned a Ki at Cannabinoid receptor 2 [4] of 0.87 µM. At Cannabinoid receptor 1 [5], the inhibition turned out to be 10%.

For `Cc1cnc(NC(=O)C(C)(C)C)cc1CN1CCOCC1`, at Cannabinoid receptor 2 [3], the EC50 came out at 0.07 µM. Further, the affinity at Cannabinoid receptor 2 [4] corresponds to a Ki of 0.081 µM. Also, the inhibition on Cannabinoid receptor 1 [5] was 37%.

For the compound `CCCC(C)(C)C(=O)Nc1cc(CN2CCOCC2)c(C)cn1`, the Ki on Cannabinoid receptor 1 [6] amounted to 1.8 µM; at Cannabinoid receptor 2 [4] it was 0.0053 µM. Besides, the remaining at 0.5 h in [2] worked out at 15%. Moreover, in the data set listed under Homo sapiens, the Ratio Ki turned out to be 330. Besides, the EC50 on Cannabinoid receptor 2 [3] was determined as 0.0041 µM.

In the case of `CCC(C)(C)C(=O)Nc1cc(CN2CCOCC2)c(C)cc1C`, the remaining at 0.5 h in data set [1] turned out to be 68%. On Cannabinoid receptor 1 [5], this compound had an inhibition of 18%.

In the case of `CCc1cnc(NC(=O)C(C)(C)CC)cc1CN1CCOCC1`, the Ki at Cannabinoid receptor 1 [6] turned out to be 4.3 µM; at Cannabinoid receptor 2 [4] it was 0.0079 µM. Further, the remaining at 0.5 h came out at 29% in data set [1] and 34% in data set [2]. Moreover, the Ratio Ki in the data set filed under Homo sapiens came out at 550. Moreover, on Cannabinoid receptor 2 [3], the EC50 worked out at 0.0096 µM.

`CCC(C)(C)C(=O)Nc1cc(CN2CCOCC2)c(C#N)cn1`: the EC50 at Cannabinoid receptor 2 [3] is 0.2 µM. For the same compound, the Ki on Cannabinoid receptor 2 [4] is 0.1 µM. The inhibition at Cannabinoid receptor 1 [5] came to 11%.

A word on the Cmax: it is the peak of the concentration-time curve. The term AUC(0-inf) denotes the area under the concentration-time curve extrapolated to infinity. For orientation: half-life means the time in which the quantity being followed falls by half. The AUC is the area under the concentration-time curve, a measure of exposure. The term Tmax denotes the time from dosing to the highest level. One may read the bioavailability as dose-corrected exposure relative to a reference, in per cent. As a reminder, the clearance is a measure of how efficiently the substance is removed, as volume per time. For `CCC(C)(C)C(=O)Nc1cc(CN2CCOCC2)c(C)cn1`, the Cmax in [7] turned out to be 185 ng/mL; in [14], 535 ng/mL. Besides, the AUC(0-inf) was 893 ng·h/mL in data set [8] and 158 ng·h/mL in data set [9]. For the same compound, the half-life in data set [10] is 0.5 h; in data set [11] it was 1.4 h; in data set [17] it was 1.1 h; in data set [24], 2.1 h. Moreover, the Ki at Cannabinoid receptor 1 [6] stood at 3.8 µM; at Cannabinoid receptor 2 [4] it was 0.024 µM. Also, the remaining at 0.5 h in data set [1] worked out at 43%; in data set [2] it was 64%. Besides, the figures for the AUC with Canis familiaris [12] and in the data set with Canis familiaris [22] were 1127 ng·h/mL and 977 ng·h/mL, respectively. The Ratio Ki in the data set filed under Homo sapiens worked out at 160. Also, the Tmax in data set [13] was found to be 0.5 h; in data set [23], 2 h. The compound further yielded a bioavailability in data set [15] of 57%. The values for the clearance in [16] and in data set [18] were 96.7 mL/min/kg and 15 mL/min/kg, respectively. Besides, at Cannabinoid receptor 2 [3], the EC50 was 0.041 µM. The Vd came to 3.5 L/kg in [19] and 0.6 L/kg in data set [21]. The compound also gave a F in the data set on Canis familiaris [20] of 29%. Besides, the Activity in the data set with Rattus norvegicus is 271%.

`CCC(C)(C)C(=O)Nc1cc(CN2CCOCC2)cc(C)n1`: the EC50 on Cannabinoid receptor 2 [3] came out at 0.26 µM. The compound further showed a Ki at Cannabinoid receptor 2 [4] of 0.067 µM. At Cannabinoid receptor 1 [5], this compound registered an inhibition of 0%.

For the compound `CCC(C)(C)C(=O)Nc1ccc(C)c(CN2CCOCC2)c1`, the remaining at 0.5 h in data set [1] worked out at 2.2%. The same compound returned an inhibition on Cannabinoid receptor 1 [5] of 4%.

For the compound `CCC(C)(C)C(=O)Nc1cnc(C)c(CN2CCOCC2)c1`, the results for the inhibition at Cannabinoid receptor 1 [5] and on Cannabinoid receptor 2 [25] were 4% and 46%, respectively.

With `CCC(C)(C)C(=O)Nc1ccc(C)c(CN2CCOCC2)n1`, the Ki at Cannabinoid receptor 2 [4] was 1.8 µM. The inhibition on Cannabinoid receptor 1 [5] came to 28%.

As to `Cc1cnc(NC(=O)C2(C)CCCCC2C)cc1CN1CCOCC1` (centres undefined), the results for the Ki on Cannabinoid receptor 1 [6] and at Cannabinoid receptor 2 [4] were 2.5 µM and 0.0019 µM, respectively. In addition, the remaining at 0.5 h in data set [1] was 0%; in [2], 1%. The Ratio Ki in the data set filed under Homo sapiens was 1300. Further, the EC50 on Cannabinoid receptor 2 [3] is 0.0028 µM.

Consider `CCC1(C(=O)Nc2cc(CN3CCOCC3)c(C)cn2)CCC1`, for which the remaining at 0.5 h in data set [1] came to 48%; in data set [2] it was 51%. The EC50 on Cannabinoid receptor 2 [3] stood at 0.14 µM. The same compound displayed a Ki at Cannabinoid receptor 2 [4] of 0.045 µM. This compound had an inhibition at Cannabinoid receptor 1 [5] of 13%.

As for `CCC1(C(=O)Nc2cc(CN3CCOCC3)c(C)cn2)CCCC1`, the Ki stood at 1.1 µM on Cannabinoid receptor 1 [6] and 0.013 µM at Cannabinoid receptor 2 [4]. Further, the remaining at 0.5 h in data set [2] came out at 12%. The Ratio Ki in the data set filed under Homo sapiens is 85. For the same compound, the EC50 on Cannabinoid receptor 2 [3] was 0.013 µM.
